Test results taken from US20150307549A1, “AGENT FOR PREVENTING ARTERIOSCLEROSIS, AGENT FOR SUPPRESSING VASCULAR INTIMAL THICKENING AND AGENT FOR IMPROVING VASCULAR ENDOTHELIAL FUNCTION” (CALPIS Co., LTD, priority 2006, published 2015).

Assays:
[1] = tested on: thoracic aorta ring of Wistar rats; test: Endothelium-dependent vasodilator response of thoracic aorta ring of L-NAME-treated rats (Magnus apparatus); format: in vivo, rat; settings: for Degree of vasodilation compared to the group given only L-NAME (in words): given together with L-NAME in drinking water for one week
Method: Wistar rats (7 weeks of age, male) as the test animals were acclimatized for one week. A nitric oxide synthesis inhibitor, NG-nitro-L-arginine methyl ester hydrochloride (L-NAME, manufactured by SIGMA-ALDRICH CORP.) was dissolved in drinking water at the concentration of 1 g/L, and similarly, L-NAME and Val-Pro-Pro synthesized above at 1 g/L and 0.3 g/L, respectively, and L-NAME and Ile-Pro-Pro synthesized above at 1 g/L and 0.3 g/L, respectively. The rats were allowed free access to the prepared drinking water for one week. As a control, only the drinking water without L-NAME dissolved therein was given to a non-treatment group.
Then, the rats were subjected to fatal exsanguination under diethyl ether anesthesia. The thoracic aorta was taken out, cut into 2 mm long, and made into an aorta ring. The ring was set in a Magnus apparatus (product name “micro tissue organ bath MTOB-1Z”, manufactured by LABO SUPPORT CO., LTD.) filled with 5 ml of Tyrode's solution (composition: 158.3 mM of NaCl, 4.0 mM of KCl, 2.0 mM of CaCl2, 1.05 mM of MaCl2, 0.42 mM of NaH2PO4, 10.0 mM of NaHCO3, and 5.6 mM of glucose; pH 7.4, 37±0.5° C.), and allowed to equilibrate with the resting tension of 2.0 g. The aorta ring was then allowed to constrict with 1 μM of phenylephrine
The degree of vasodilation by the response was determined as a ratio to the constriction with 1 μM of phenylephrine. In the Table, each value is an average of each group of 8 animals.
In the Table, each value is an average of each group of 9 animals.

arteriosclerosis = settings: administration; Non-patent Publication 5; cited from earlier work
ApoE knockout mice = test: Confirmatory test for effect of inhibiting vascular intimal thickening (Elastica-van Gieson stain, intima/media area ratio); format: in vivo, mouse; settings: 31 weeks; for Inhibition of vascular intimal thickening (in words): Example 2-2, Feeds 1 to 6 versus control; for Degree of Intimal Thickening: intima/media area ratio
Method: ApoE knockout mice (6 weeks of age, male, 8 animals for each group) were allowed free access to Feeds 1 to 7 as shown in Table 6 for 31 weeks. Then the thoracic aorta of the mice was taken out, fixed in 10% neutral buffered formalin, and subjected to the Elastica-van Gieson stain. Micrographs of the tissue specimens were scanned into the computer, and the degree of vascular intimal thickening (intima/media area ratio (%)) was calculated using an image processing software (Image J). The values of the degree of thickening shown in the table are the averages of each group.
The confirmatory test for the effect of inhibiting vascular intimal thickening was conducted on each of the solid feeds thus produced in the same way as in Example 2-2, and the degree of intimal thickening (intimal/media area ratio (%)) was calculated. The values of the degree of intimal thickening in the table are the averages of each group.

## COC(=O)[C@@H](N)CCCN=C(N)N[N+](=O)[O-].Cl [L-NAME, NG-nitro-L-arginine methyl ester hydrochloride, reference compound]
[1]; 10 μM acetylcholine, ratio to constriction with 1 μM phenylephrine, drinking water one week: L-NAME 1 g/L, peptide 0.3 g/L, enalapril 0.5 mg/L
  Degree of vasodilation: 26.1%

## CCOC(=O)[C@H](CCc1ccccc1)N[C@@H](C)C(=O)N1CCC[C@H]1C(=O)O [enalapril, reference compound]
[1]
  Degree of vasodilation compared to the group given only L-NAME (in words): no significant difference
arteriosclerosis
  Arteriosclerosis inhibitory effect: does not result in an arteriosclerosis inhibitory effect

## Ile-Pro-Pro
[1]
  Degree of vasodilation compared to the group given only L-NAME (in words): significantly higher
ApoE knockout mice
  Inhibition of vascular intimal thickening (in words): inhibited vascular intimal thickening concentration-dependently
ApoE knockout mice; Feed 3: 0.0017 wt % in feed (Ile-Pro-Pro 17.1 mg/kg feed)
  Degree of Intimal Thickening: 25.3%
ApoE knockout mice; Feed 4: 0.0170 wt % in feed (Ile-Pro-Pro 171.0 mg/kg feed)
  Degree of Intimal Thickening: 20.5%

## Val-Pro-Pro
[1]
  Degree of vasodilation compared to the group given only L-NAME (in words): significantly higher
ApoE knockout mice
  Inhibition of vascular intimal thickening (in words): inhibited vascular intimal thickening concentration-dependently
ApoE knockout mice; Feed 1: 0.0034 wt % in feed (Val-Pro-Pro 34.1 mg/kg feed)
  Degree of Intimal Thickening: 21.8%
ApoE knockout mice; Feed 2: 0.0340 wt % in feed (Val-Pro-Pro 341.0 mg/kg feed)
  Degree of Intimal Thickening: 18.7%
